Source: PMC8942850, “Boron clusters as broadband membrane carriers” (Nature, 2022)

Experiments:
[1] = Dynamic light scattering (vesicle size, cargo-carrier aggregates); assay type: physicochemical
Method: DLS experiments were carried out on a Malvern Instruments DTS Nano 2000 Zeta-Sizer.
Extended Data Fig. 1 Assays testing for stability vs leakage of the vesicles. a, Response of the HPTS/DPX assay towards a membrane-disrupting agent and chemical structures of the fluorescent dye HPTS and the quencher DPX. In this assay, large unilamellar vesicles are loaded with the HPTS/DPX probe/quencher pair, such that the fluorescence of HPTS is quenched. […] The cluster B12I12^2− (red trace) was identified as lytic agent because the mere addition of the cluster led to a fluorescence increase. […] In this assay, large unilamellar vesicles are loaded with CF at high concentration, such that the fluorescence is quenched. […] The cluster B12I12^2− (red trace) was identified as lytic agent because its mere addition led to a fluorescence increase. […] In b, e and f, Triton X-100 was added at t = 600 s to induce vesicle lysis and allow data normalization. Source data

HeLa cells [2] = test: Confocal imaging of TAMRA-R8 / TAMRA-D-R8 / TAMRA uptake in living cells
Description: Representative images of two biological replicates. […] Scale bars, 50 μm.
Representative images of two biological replicates. […] Source data
(1 picture or pasted object on this page, not shown here)

[3] = system: adenocarcinoma human alveolar basal epithelial cells A549; test: MTT viability with B12Br12^2− or R8; design: dose or concentration left out as unconfirmed; details: 3 h in HKR + 24 h medium, mean of five measurements
Method: (§1) The incubation mixtures were replaced with DMEM + 10% FBS + 0.5 mg ml^–1 MTT. For the viability assays in the presence of B12Br12^2− or R8, HeLa, GT1-7, ARPE-19 and A549 cells were seeded the day before in 96-well plates at 6,000 cells per well. Cells were incubated with B12Br12^2− or R8 dissolved in HKR buffer for 3 h and, thereafter, incubated for 24 h with complete medium before incubating with complete medium and 0.5 mg ml^−1 MTT. For viability studies in the presence of MMAF, HeLa cells were incubated with MMAF and B12Br12^2− diluted in DMEM (without serum or antibiotics) for 3 h. Cells were washed with 0.1 mg ml^−1 heparin and further incubated for 21 h in complete medium and 2 h in complete medium containing 0.5 mg ml^−1 MTT. For all types of assays, after 2 h of incubation, the medium was carefully removed, and formazan crystals dissolved by addition of DMSO. The absorbance at 570 nm was measured with a plate reader (Tecan Infinite F200Pro) and the data normalized to the value of untreated cells (100% viability). Data were analysed with R (v. 4.0.3)[54].
(§2) Cells were incubated with 7 µM phalloidin-TRITC (red) in the absence (left) and presence of 50 µM ^AcR8 (middle) or 50 µM of B12Br12^2− cluster (right) in HKR buffer for 3 h, subsequently stained with Hoechst (blue), washed with DMEM without phenol red, and imaged by confocal fluorescence microscopy; bright-field images in insets. Micrographs from each cell line were processed independently, experiments were performed twice. e, MTT viability assay of the corresponding cell lines (HeLa, GT1-7, ARPE-19 and A549, from left to right) at different concentrations (0, 25, 75, 250, and 500 µM) of B12Br12^2− (black) or ^AcR8 (red); data are mean ± s.d. of five measurements. f, Confocal images of HeLa cells after incubation with 500 nM phalloidin-TRITC and different concentrations B12Br12^2−; the images correspond to those of Fig. 4 in the main text, but are shown with increased brightness to facilitate observation of the actin filaments. Representative images of two biological replicates. All scale bars are […], except for panel f (50 µm). Source data

HeLa cells [4] = test: MTT viability with B12Br12^2− or R8; design: dose or concentration left out as unconfirmed; details: 3 h in HKR + 24 h medium, mean of five measurements
Method: as §1, §2

## B12Br12^2−
[1]
  DLS of combinations of cluster with the different cargos (aggregates): did not show any detectable signal of particles
HeLa cells [2]
  TAMRA-R8 fluorescence pattern in cells in presence of cluster: diffuse peptide fluorescence
[3]; 25 as printed
  mean_viability: 106.289%
[3]; 75 as printed
  mean_viability: 109.955%
HeLa cells [4]; 25 as printed
  mean_viability: 104.374%
HeLa cells [4]; 75 as printed
  mean_viability: 100.045%
